In ChEMBL document CHEMBL5346922, “Discovery of phenylcarbamoyl xanthone derivatives as potent neuroprotective agents for treating ischemic stroke” (Eur J Med Chem, 2023):
Calls of active or inactive are those of the source. The rule behind the calls is not given here.

Key:
[1] = Acute toxicity in Sprague-Dawley rat assessed as animal death at 4000 mg/kg, po measured for 24 hrs; format: organism-based; details: in vivo
PC-12 [2] = assay: Cytotoxicity against rat PC12 cells assessed as reduction in cell viability incubated for 24 hrs by MTT assay; format: functional, cell-based; details: PC-12, 24 h
PC-12 [3] = assay: Neuroprotective activity against glutamate induced excitotoxicity in rat PC12 cells assessed as cell survival at 20 uM pretreated with glutamate for 24 hrs followed by compound addition and measured after 24 hrs; format: functional; details: read-out: Survival
PC-12 [4] = assay: Neuroprotective activity in rat PC12 cells assessed as protection against glutamate induced excitotoxicity at 20 uM pretreated with glutamate for 24 hrs followed by compound addition and measured after 24 hrs; format: functional
Rattus norvegicus [5] = assay: Neuroprotective activity against middle cerebral artery occlusion induced ischemia stroke Sprague-Dawley rat model assessed as […] in serum MDA level at 20 to 60 mg/kg, ip measured after 24 hrs; format: functional, organism-based; details: dose 20-60 mg/kg
Rattus norvegicus [6] = assay: Neuroprotective activity against middle cerebral artery occlusion induced ischemia stroke Sprague-Dawley rat model assessed as decrease in brain water content at 60 mg/kg, ip measured after 24 hrs (reference value: 83.17 +/- 2.40%); format: functional; parameters: scale not given: the % may be the effect or the level left
Rattus norvegicus [7] = assay: Neuroprotective activity against middle cerebral artery occlusion induced ischemia stroke Sprague-Dawley rat model assessed as decrease in cerebral infarction area at 60 mg/kg, ip measured after 24 hrs by TTC staining based microscopic assay (reference value: 15.91 +/- 9.06 %); format: functional; parameters: scale not given: the % may be the effect or the level left
PC-12 [8] = assay: Cytotoxicity against rat PC12 cells assessed as reduction in cell viability at 80 uM incubated for 24 hrs by MTT assay; format: functional
PC-12 [9] = assay: Neuroprotective activity against H2O2-induced oxidative damage in rat PC12 cells at 20 uM pretreated with H2O2 for 24 hrs followed by compound addition and measured after 24 hrs; format: functional
Rattus norvegicus [10] = assay: Neuroprotective activity against middle cerebral artery occlusion induced ischemia stroke Sprague-Dawley rat model assessed as reduction in IL-1beta level in serum at 20 to 60 mg/kg, ip measured after 24 hrs by ELISA analysis; format: functional, organism-based; details: dose 20-60 mg/kg
Rattus norvegicus [11] = assay: Neuroprotective activity against middle cerebral artery occlusion induced ischemia stroke Sprague-Dawley rat model assessed as increase in serum SOD level at 20 to 60 mg/kg, ip measured after 24 hrs; format: functional, organism-based; details: dose 20-60 mg/kg
PC-12 [12] = assay: Neuroprotective activity against glutamate induced excitotoxicity in rat PC12 cells pretreated with glutamate for 24 hrs followed by compound addition and measured after 24 hrs; format: functional, cell-based
Rattus norvegicus [13] = assay: Neuroprotective activity against middle cerebral artery occlusion induced ischemia stroke Sprague-Dawley rat model assessed as reduction in TNF-alpha level in serum at 20 to 60 mg/kg, ip measured after 24 hrs by ELISA analysis; format: functional, organism-based; details: dose 20-60 mg/kg
PC-12 [14] = assay: Neuroprotective activity against H2O2-induced oxidative damage in rat PC12 cells assessed as increase in cell survival at 20 uM pretreated with H2O2 for 24 hrs followed by compound addition and measured after 24 hrs; format: functional; details: read-out: Survival
PC-12 [15] = assay: Neuroprotective activity against H2O2-induced oxidative damage in rat PC12 cells pretreated with H2O2 for 24 hrs followed by compound addition and measured after 24 hrs; format: functional, cell-based
Rattus norvegicus [16] = assay: Neuroprotective activity against middle cerebral artery occlusion induced ischemia stroke Sprague-Dawley rat model assessed as Zea-longa score at 60 mg/kg, po measured after 24 hrs (reference value: 2.33 +/- 0.47); format: functional

Question: For `COc1c(OC(=O)N(C)c2ccccc2)cc2oc3cc4c(c(O)c3c(=O)c2c1CC=C(C)C)C=CC(C)(C)O4`, which Activity [1] is on record?
Answer: Non-Toxic

Question: What about the IC50 (PC-12 [2]) of the same compound?
Answer: 3.3 µM

Question: And the viability at 20 µM (PC-12 [3])?
Answer: 68.6%

Question: What about the Activity (PC-12 [4]) of the same compound?
Answer: 54.79%

Question: And the Activity (Rattus norvegicus [5])?
Answer: Active

Question: What about the Activity (Rattus norvegicus [6]) of the same compound?
Answer: 77.41%

Question: What about the Activity (Rattus norvegicus [7]) of the same compound?
Answer: 1.78%

Question: What about the Activity (PC-12 [8]) of the same compound?
Answer: inactive

Question: And the Activity (PC-12 [9])?
Answer: 52.62%

Question: And the Activity (Rattus norvegicus [10])?
Answer: Active

Question: And the Activity (Rattus norvegicus [11])?
Answer: Active

Question: What about the EC50 (PC-12 [12]) of the same compound?
Answer: 16.1 µM

Question: What about the Activity (Rattus norvegicus [13]) of the same compound?
Answer: Active

Question: What about the viability at 20 µM (PC-12 [14]) of the same compound?
Answer: 78.9%

Question: And the EC50 (PC-12 [15])?
Answer: 19.3 µM

Question: And the Activity (Rattus norvegicus [16])?
Answer: 1.67
